# Measured values reported in the supplement of paper PMC10949913.
# Where “and” joins values, the source holds several entries; their conditions need not be identical. Equal values may be shown once.
# Key:
# Conditions in all cases: 48 h
# CU-ACC1 [1] = test: AC50 viability; higher = less potent
# Summary of the method: (§1)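 Three adrenocortical carcinoma cell lines in 1,536-well plates received 23 nL of each library compound at 11 concentrations and were read with CellTiter-Glo after 48 h, with 15 minutes at room temperature before measuring luminescence. Vehicle and empty-well controls served for per-plate normalisation. AC50 and area under the curve were extracted from fitted concentration-response curves, discarding all curve classes other than inhibitory or non-responding.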
# CU-ACC2 [2] = test: AC50 viability; higher = less potent
# Summary of the method: as §1
# CU-ACC1 [3] = test: area under concentration-response curve (viability) (AUC (a.u.)); higher = less active
# Summary of the method: as §1
# CU-ACC2 [4] = test: as above
# Summary of the method: as §1
# NCI-H295R = test: as above
# Summary of the method: as §1
SMILES,AC50 viability (CU-ACC1 [1]) [µM],AC50 viability (CU-ACC2 [2]) [µM],area under concentration-response curve (CU-ACC1 [3]),area under concentration-response curve (CU-ACC2 [4]),area under concentration-response curve (NCI-H295R)
O=C(N[C@@H](c1ccccc1)[C@@H]1CCCCN1)c1cccc(C(F)(F)F)c1Cl,10.5,33.2,371,454,212
O=C(CC12CC3CC(CC(C3)C1)C2)Nc1cccc2nc(NCCNCCO)ccc12,26.3,23.5,473,537,–
CN(C)C1CCN(C(=O)c2ccc(NC(=O)Nc3nc(N4CCOCC4)nc(N4CCOCC4)n3)cc2)CC1,3.32,1.86,393,458,464
Cc1cc2c(C(C)C)c(O)c(O)c(C=O)c2c(O)c1-c1c(C)cc2c(C(C)C)c(O)c(O)c(C=O)c2c1O,26.3,23.5,529,596,–
Oc1cc(-c2nc(-c3ccccc3)[nH]c2-c2ccncc2)ccc1Cl,20.9,16.6,464,514,522
CN(C)C1CCN(C(=O)c2ccc(NC(=O)Nc3ccc(-c4nc(N5CCOCC5)nc(N5CCOCC5)n4)cc3)cc2)CC1,2.35,4.17,411,345,485
c1cc(N[C@@H]2CCNC2)nc(-c2cnc3ccc(-c4cn[nH]c4)cn23)c1,0.00662,41.7,331,380,409
C/C=C/C/C=C/CCC(=O)[C@H]1O[C@H]1C(N)=O,20.9,23.5,474,554,–
COC1=CC(c2cc3ccccc3[nH]2)=N/C1=C/c1[nH]c(C)cc1C,37.2,33.2,410,495,–
NCCCCNCCCN,16.6,33.2,312,422,107
CN1\C=N/C2=CC=C(NC3=CC(=CC=C3C)NC(=O)C4=CC(=CC=C4)C(C)(C)C#N)C=C2C1=O,0.0934,8.33,445,499,518
COc1ccc(CNc2nc(N(CCO)CCO)nc3c2ncn3C(C)C)cc1,14.8,7.42,438,502,–
O=C(CCCCCCC(=O)Nc1ccccc1)NO,2.95,3.32,415,474,–
O=C(CCCCCCC(=O)Nc1ccc([C@H]2O[C@@H](CSc3nc(-c4ccccc4)c(-c4ccccc4)o3)C[C@@H](c3ccc(CO)cc3)O2)cc1)NO,2.7,3.4,488,573,492
CC(=O)Nc1ccc(C(=O)NC(C)(C)C)cc1,5.25,0.295,331,247,284
CN1C(=O)C(=C/2N(C(=O)N(C3CC3)C(=O)C2=C1/NC4=CC=C(I)C=C4F)C5=CC=CC(=C5)NC(C)=O)\C,0.742,0.0661,305,372,408
C[C@]12Cc3cn[nH]c3C[C@@H]1CC[C@@H]1[C@@H]2CC[C@@]2(C)[C@H]1CC[C@]2(C)O,0.0132,0.263,335,214,312
CCCNC(=O)[C@H]1O[C@@H]1C(=O)N[C@H](C(=O)N1CCC[C@H]1C(=O)OC)C(C)CC (stereo partly specified),16.6,18.6,449,504,494
CC(C)(C)C(=O)OCOP(=O)(COCCn1cnc2c(N)ncnc21)OCOC(=O)C(C)(C)C,8.33,7.42,456,527,–
COC1=CC=C2Nc3cc(Cl)ccc3C(N=C3C=C(CN4CCCC4)C(=O)C(CN4CCCC4)=C3)=C2N1,18.6,23.5,477,528,–
CC[C@@]1(O)C(=O)OCc2c1cc1n(c2=O)Cc2cc3c(CN(C)C)c(O)ccc3nc2-1.Cl,16.6,16.6,428,483,488
Cc1cc(Nc2nc(N[C@@H](C)c3ccc(F)cc3)c(C#N)cc2F)n[nH]1,18.6,20.9,516,467,–
Cc1c[nH]c2ncnc(N3CCC(CN)(C(=O)Nc4cccc(OC(=O)N(C)C)c4)CC3)c12,10.5,18.6,427 and 309,512,518 and 295
COc1cc2c(N3CCN(C(=O)Nc4ccc(OC(C)C)cc4)CC3)ncnc2cc1OCCCN1CCCCC1,16.6,7.42,401,457,–
COc1cccc([C@@H](C)NCCCc2ccccc2Cl)c1,20.9,23.5,462,584,–
C[C@@H](O)[C@@H](C)Oc1nc(Nc2ccc([S+](=N)([O-])C3CC3)cc2)ncc1C(F)(F)F (stereo partly specified),23.5,26.3,476,567,–
CC(C)(O)CC[C@@H](O)[C@](C)(O)[C@H]1CC[C@@]2(O)C/3=C/C(=O)[C@@H]4C[C@@H](O)[C@@H](O)C[C@]4(C)[C@H]3CC[C@]12C,0.132,0.372,192,233,–
CN[C@@H](C)C(=O)N[C@H]1CCCC[C@H]2CC[C@@H](C(=O)N[C@@H](c3ccccc3)c3cn(CCCCc4ccc(CCCCn5cc([C@@H](NC(=O)[C@@H]6CC[C@@H]7CCCC[C@H](NC(=O)[C@H](C)NC)C(=O)N76)c6ccccc6)nn5)cc4)nn3)N2C1=O,0.166,0.332,260,303,–
COc1ncc(Nc2ncc(C(C)N3CCN([S+](C)(=O)[O-])CC3)cc2-c2nc(C)nc(N)n2)cc1F (stereo unspecified),0.00263,0.0934,226,258,179
CC[C@@]1(O)C(=O)OCC/2=C1/C=C3\N(CC4=CC5=CC(=CC=C5N=C34)O)C2=O,2.09,0.742,271,436,518
